In patent US7371534B2, “Sensitive intracellular calcium assay” (Discoverx Corporation, priority 2004, dated 2008):

Tested on: Muscarinic receptor
Assay: Intracellular calcium assay for the effect of carbachol (Fluo-4 AM, FLIPR peak fluorescence)
Type: cell-based
Settings: for change in signal based on the value at 10 nM: 10 nM to 1000 nM
Method: Assay is run in a standard 384-well microtiter plate with a clear bottom. Cells are seeded at a density of 30,000 cells/well, and allowed to grow overnight in standard tissue culture medium, under standard tissue culture conditions.
The next day, tissue culture supernatant is removed, and 50 μl of Calcium Reagent (Molecular Devices, Sunnyvale Calif.) is added to the wells. Plate is incubated for 1 hour at 37EC in a standard tissue culture incubator. This step loads the dye into the cells.
After the 1 hour incubation, the plate is transferred to the Molecular Device FLIPR instrument, which measures the cellular fluorescence (excitation at 488 nm /emission 515 nm filter), in one second intervals. The dye is hydrolyzed in the cell by esterases and becomes fluorescent. The instrument adds 25 microliters of carbachol (agonist for cellular calcium response) 10 seconds after the initiation of the read, and the increase in free cellular calcium resulting from carbachol stimulation is measured as an increase in cellular fluorescent signal.
The reagent: 3 μM Fluo-4 AM dye (Molecular Probes, Eugene Oreg.), 150 nM antibody in HEPES buffer (pH 7.4) containing 1% fetal bovine serum (Sigma), 0.1% Pluronic F127 (BASF) and 0.5 mM probenecid (Sigma) is added.
Instrument software identifies peak fluorescence, which is directly correlated to cellular calcium levels.

C[N+](C)(C)CCOC(N)=O [Carbachol]
change in signal based on the value at 10 nM (commercial reagent): 21% | change in signal based on the value at 10 nM (present reagents): 161% | Calcium Assay, RFU (peak fluorescence) (carbachol 10 nM, Commercial Reagents (prior art, Quencher-Ab conjugate -)): 9410 RFU | Calcium Assay, RFU (peak fluorescence) (carbachol 10 nM, DiscoveRx Reagents (present reagents, Quencher-Ab conjugate +)): 2589 RFU | Calcium Assay, RFU (peak fluorescence) (carbachol 1000 nM, Commercial Reagents (prior art, Quencher-Ab conjugate -)): 11348 RFU | Calcium Assay, RFU (peak fluorescence) (carbachol 1000 nM, DiscoveRx Reagents (present reagents, Quencher-Ab conjugate +)): 6767 RFU | difference in signal in going from 10 nM to 1000 nM (commercial reagent): 1938 RFU | change in signal in going from 10 nM to 1000 nM (present reagents): 4178 RFU
